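Values below derive from 48-hour exposures of cells grown in 96-well plates, with endpoints linearly interpolated between the two concentrations bracketing the appropriate inhibition level. Here, GI50 denotes the concentration required for 50% inhibition of growth.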 The source made the active and inactive calls. Rule as the data show it: active = GI50 up to about 1.1 µM and inactive = higher.
What was measured:
Assay in all cases: growth of human tumour cells (NCI), 48 h
786-0 = test system: 786-0
A498 = test system: A498
ACHN = test system: ACHN
BT-549 = test system: BT-549
CAKI-1 = test system: CAKI-1
CCRF-CEM = test system: CCRF-CEM
COLO 205 = test system: COLO 205
DU-145 = test system: DU-145
EKVX = test system: EKVX
HCC 2998 = test system: HCC 2998
HCT-116 = test system: HCT-116
HCT-15 = test system: HCT-15
HL-60 = test system: HL-60
HOP-62 = test system: HOP-62
HOP-92 = test system: HOP-92
HT-29 = test system: HT-29
Hs-578T = test system: Hs-578T
IGROV-1 = test system: IGROV-1
K562 = test system: K562
KM12 = test system: KM12
LOX IMVI = test system: LOX IMVI
M14 = test system: M14
MCF7 = test system: MCF7
MDA-MB-231 = test system: MDA-MB-231
MDA-MB-435 = test system: MDA-MB-435
MOLT-4 = test system: MOLT-4
NCI-H226 = test system: NCI-H226
NCI-H23 = test system: NCI-H23
NCI-H460 = test system: NCI-H460
NCI/ADR-RES = test system: NCI/ADR-RES
OVCAR-4 = test system: OVCAR-4
OVCAR-8 = test system: OVCAR-8
PC-3 = test system: PC-3
RPMI-8226 = test system: RPMI-8226
RXF 393 = test system: RXF 393
SF-268 = test system: SF-268
SF-295 = test system: SF-295
SF-539 = test system: SF-539
SK-MEL-28 = test system: SK-MEL-28
SK-MEL-2 = test system: SK-MEL-2
SK-MEL-5 = test system: SK-MEL-5
SK-OV-3 = test system: SK-OV-3
SNB-19 = test system: SNB-19
SNB-75 = test system: SNB-75
SR = test system: SR
SW-620 = test system: SW-620
T47D = test system: T47D
TK-10 = test system: TK-10
U-251 = test system: U-251
UACC-257 = test system: UACC-257
UACC-62 = test system: UACC-62
UO-31 = test system: UO-31
A549 = test system: A549
NCI-H522 = test system: NCI-H522
OVCAR-3 = test system: OVCAR-3
OVCAR-5 = test system: OVCAR-5
SN12C = test system: SN12C

CC(=O)Nc1ccc(-c2nc3ccccc3s2)cc1
GI50 (786-0): 24 µM (inactive)
GI50 (A498): 13.4 µM (inactive)
GI50 (ACHN): 32.4 µM (inactive)
GI50 (BT-549): > 10 µM (inactive)
GI50 (CAKI-1): 22.8 µM (inactive)
GI50 (CCRF-CEM): 64.1 µM (inactive)
GI50 (COLO 205): 58.9 µM (inactive)
GI50 (DU-145): 4.9 µM (inactive)
GI50 (EKVX): 85.1 µM (inactive)
GI50 (HCC 2998): 73.8 µM (inactive)
GI50 (HCT-116): 86.7 µM (inactive)
GI50 (HCT-15): 81.5 µM
GI50 (HL-60): 81.7 µM (inactive)
GI50 (HOP-62): 20.9 µM (inactive)
GI50 (HOP-92): 55.5 µM (inactive)
GI50 (HT-29): 73.1 µM (inactive)
GI50 (Hs-578T): 40.3 µM (inactive)
GI50 (IGROV-1): 47.6 µM (inactive)
GI50 (K562): 1.96 µM (inactive)
GI50 (KM12): 35.3 µM (inactive)
GI50 (LOX IMVI): 36.9 µM (inactive)
GI50 (M14): 63.1 µM (inactive)
GI50 (MCF7): 67.5 µM (inactive)
GI50 (MDA-MB-231): 26.8 µM (inactive)
GI50 (MDA-MB-435): 97.5 µM (inactive)
GI50 (MOLT-4): 20.2 µM (inactive)
GI50 (NCI-H226): 44.8 µM (inactive)
GI50 (NCI-H23): 52.1 µM (inactive)
GI50 (NCI-H460): 36.1 µM (inactive)
GI50 (NCI/ADR-RES): 28.7 µM (inactive)
GI50 (OVCAR-4): 29.4 µM (inactive)
GI50 (OVCAR-8): 35.4 µM (inactive)
GI50 (PC-3): 64.7 µM (inactive)
GI50 (RPMI-8226): > 100 µM (inactive)
GI50 (RXF 393): 23.6 µM (inactive)
GI50 (SF-268): 51.3 µM (inactive)
GI50 (SF-295): 29.6 µM (inactive)
GI50 (SF-539): 26.2 µM (inactive)
GI50 (SK-MEL-28): 71.9 µM (inactive)
GI50 (SK-MEL-2): 57.4 µM (inactive)
GI50 (SK-MEL-5): > 100 µM (inactive)
GI50 (SK-OV-3): 21.2 µM (inactive)
GI50 (SNB-19): 33.4 µM (inactive)
GI50 (SNB-75): 30.8 µM (inactive)
GI50 (SR): 45.6 µM (inactive)
GI50 (SW-620): 53.6 µM (inactive)
GI50 (T47D): 31.1 µM (inactive)
GI50 (TK-10): 57.8 µM (inactive)
GI50 (U-251): 27.5 µM (inactive)
GI50 (UACC-257): > 100 µM (inactive)
GI50 (UACC-62): 66.7 µM (inactive)
GI50 (UO-31): 45.5 µM (inactive)

COc1ccc(C2SCC(=O)N2c2ccc(-n3c(-c4ccccc4)nc4ccccc4c3=O)cc2)cc1 (stereo not drawn)
GI50 (786-0): > 100 µM (inactive)
GI50 (A498): > 100 µM (inactive)
GI50 (A549): > 100 µM (inactive)
GI50 (ACHN): > 100 µM (inactive)
GI50 (BT-549): > 100 µM (inactive)
GI50 (CAKI-1): > 100 µM (inactive)
GI50 (CCRF-CEM): > 100 µM (inactive)
GI50 (COLO 205): > 100 µM (inactive)
GI50 (DU-145): > 100 µM (inactive)
GI50 (EKVX): > 100 µM (inactive)
GI50 (HCC 2998): 60.3 µM (inactive)
GI50 (HCT-116): > 100 µM (inactive)
GI50 (HCT-15): 48.5 µM
GI50 (HL-60): > 100 µM (inactive)
GI50 (HOP-62): > 100 µM (inactive)
GI50 (HOP-92): 46.7 µM (inactive)
GI50 (HT-29): > 100 µM (inactive)
GI50 (Hs-578T): > 10 µM (inactive)
GI50 (IGROV-1): > 100 µM (inactive)
GI50 (K562): > 100 µM (inactive)
GI50 (KM12): 90.8 µM (inactive)
GI50 (LOX IMVI): > 100 µM (inactive)
GI50 (M14): > 100 µM (inactive)
GI50 (MCF7): 98.4 µM (inactive)
GI50 (MDA-MB-231): > 100 µM (inactive)
GI50 (MDA-MB-435): > 100 µM (inactive)
GI50 (MOLT-4): 24.6 µM (inactive)
GI50 (NCI-H226): > 100 µM (inactive)
GI50 (NCI-H23): > 100 µM (inactive)
GI50 (NCI-H460): > 100 µM (inactive)
GI50 (NCI-H522): 36.4 µM (inactive)
GI50 (NCI/ADR-RES): 8.89 µM (inactive)
GI50 (OVCAR-3): > 100 µM (inactive)
GI50 (OVCAR-4): > 100 µM (inactive)
GI50 (OVCAR-5): > 100 µM (inactive)
GI50 (OVCAR-8): > 100 µM (inactive)
GI50 (PC-3): 42.1 µM (inactive)
GI50 (RPMI-8226): > 100 µM (inactive)
GI50 (SF-268): > 100 µM (inactive)
GI50 (SF-295): > 100 µM (inactive)
GI50 (SF-539): > 100 µM (inactive)
GI50 (SK-MEL-28): > 100 µM (inactive)
GI50 (SK-MEL-2): 6.95 µM (inactive)
GI50 (SK-MEL-5): > 100 µM (inactive)
GI50 (SK-OV-3): 73.3 µM (inactive)
GI50 (SN12C): > 100 µM (inactive)
GI50 (SNB-19): > 100 µM (inactive)
GI50 (SNB-75): 15.8 µM (inactive)
GI50 (SR): 45 µM (inactive)
GI50 (SW-620): > 100 µM (inactive)
GI50 (T47D): 21.6 µM (inactive)
GI50 (TK-10): > 100 µM (inactive)
GI50 (U-251): > 100 µM (inactive)
GI50 (UACC-257): > 100 µM (inactive)
GI50 (UACC-62): 17.8 µM (inactive)
GI50 (UO-31): 25.3 µM (inactive)
